Experimental data taken from US7803757B2, “Peptides based on the sequence of human lactoferrin and their use” (PharmaSurgics in Sweden AB, priority 1998, dated 2010).
Converted amounts (≈) assume the structure as drawn. Bridge positions count the residues as written; N and C are the ends. Square brackets hold non-standard residues; d marks the D form. Ends that are not written are not given here. Peptide text beside a SMILES is read from it. Orn = NCCC[C@H](N)C(=O)O

How the values were obtained:
[1] = test system: S. aureus; assay: MMC99% of modified peptides, S. aureus (Example 26); assay type: cell-based; settings: BHI diluted 1/100, pH approximately 6.7-6.9 (Table 22)
Protocol: (§1) In the examples, the minimal microbicidal concentrations (MMC) and minimal inhibitory concentrations (MIC) were determined as follows, unless otherwise specified in the examples. Bacterial or fungal strains were cultured in BHI medium over night at 37° C. A volume of the culture was transferred to a new tube with BHI and incubated for two more hours. Thereafter the cells were spun down and the pellet was suspended in BHI medium diluted 1/100 (1% BHI). The concentration of bacterial or fungal cells was spectrophotometrically determined at 650 nm. The microbial concentrations were also determined by viable counts. Peptides serially diluted in 1% BHI by twofold or tenfold steps were added in triplicate to the wells of a microtiterplate (200 μl per well). The bacterial or fungal cell solutions were added in 10 μl volumes to give a final concentration of approximately 1-5×10^5 cells per ml in the well. The microplate was incubated at 37° C. in a humid chamber for two hours. Thereafter 5 μl was taken from each well and added as a drop onto a blood agar plate and incubated over night at 37° C. The microplate was incubated for another 20 hours at 37° C. and thereafter analysed spectrophotometrically at 650 nm in a microplate reader (Emax, Molecular Devices, USA). The concentration of peptide causing a 99% reduction of the inoculum after 2 hours of incubation was defined as the MMC99%. The MIC value was defined as the concentration giving no increase in the absorbance value above the background level after 20 hours of incubation.
(§2) In this example the fungicidal, and bactericidal effects of the different peptides obtained in example 22 were studied. C. albicans, E. coli and S. aureus, respectively, were incubated in BHI medium diluted 1/100, with a pH of approximately 6.7-6.9. The concentration of each peptide needed to kill 99% of the microorganisms (MMC99%) was determined.

[2] = test system: C. albicans; assay: MMC99% of modified peptides, C. albicans (Example 25); assay type: cell-based; settings: BHI diluted 1/100, pH approximately 6.7-6.9 (Table 21)
Protocol: as §1
as §2, with “examples 18-21” for “example 22”

[3] = test system: E. coli O6K5; assay: microbicidal activity MMC99%, E. coli O6K5 (Example 28); assay type: cell-based; settings: E. coli O6K5 (Table 24)
Protocol: as §1
(§3) In this example the microbicidal activity of eight of the peptides according to the invention was studied, and tested against E. coli O6K5 and C. albicans.
(§4) The concentration of each peptide needed to kill 99% of the microorganisms (MMC99%) was determined.

[4] = test system: E. coli O6; assay type: cell-based
Summary of the method: (§5)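 Microbes at ~1–5×10^5 cells/mL in 1% BHI exposed to peptides (1, 10, 25, 100 µg/ml) at 37 °C. MMC99%: concentration killing 99% of inoculum after 2 h, by spotting onto blood agar. MIC: no absorbance rise at 650 nm above background after a further 20 h.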

[5] = test system: C. albicans (ATCC64549); assay type: cell-based
Summary of the method: as §5

[6] = test system: C. albicans; assay: MMC99% of modified peptides, C. albicans (Example 26); assay type: cell-based; settings: BHI diluted 1/100, pH approximately 6.7-6.9 (Table 22)
Protocol: as §1, §2

[7] = test system: S. aureus; assay: killing of bacteria at fixed peptide concentration, S. aureus (Example 12); assay type: cell-based; settings: peptide 25 μg/ml
Protocol: (§6) In this example, the peptides according to the invention were used to study the effect on the killing of different bacteria.
(§7) The peptides were used at a concentration of 25 μg/ml.

[8] = test system: C. glabrata; assay: fungicidal activity MMC99%, C. glabrata (Example 27); assay type: cell-based; settings: BHI diluted 1/100 (Table 23)
Protocol: as §1
(§8) In this example the fungicidal activity of three of the peptides according to the invention was studied, and tested against three different fungi. The fungi were incubated in BHI medium diluted 1/100. The concentration of each peptide needed to kill 99% of the fungi (MMC99%) was determined.

[9] = test system: S. aureus; assay: MMC99% of modified peptides, S. aureus (Example 25); assay type: cell-based; settings: BHI diluted 1/100, pH approximately 6.7-6.9 (Table 21)
Protocol: as §1
as §2, with “examples 18-21” for “example 22”

[10] = test system: E. faecalis; assay: killing of bacteria at fixed peptide concentration, E. faecalis (Example 12); assay type: cell-based; settings: peptide 25 μg/ml
Protocol: as §6, §7

[11] = test system: K. pneumoniae; assay: killing of bacteria at fixed peptide concentration, K. pneumoniae (Example 12); assay type: cell-based; settings: peptide 25 μg/ml
Protocol: as §6, §7

[12] = test system: P. aeruginosa; assay: killing of bacteria at fixed peptide concentration, P. aeruginosa (Example 12); assay type: cell-based; settings: peptide 25 μg/ml
Protocol: as §6, §7

[13] = test system: C. albicans; assay: fungicidal activity MMC99%, C. albicans (Example 27); assay type: cell-based; settings: BHI diluted 1/100 (Table 23)
Protocol: as §1, §8

[14] = test system: C. albicans; assay: microbicidal activity MMC99%, C. albicans (Example 28); assay type: cell-based; settings: C. albicans (Table 24)
Protocol: as §1, §3, §4

[15] = test system: C. albicans yeast cells (ATCC64549); assay: killing and growth inhibition of C. albicans at pH 4.5 (Example 11); assay type: cell-based; set-up: key to C. albicans inhibition (OD650): + = no increase in OD650 is seen; − = OD650 continues to increase; settings: pH 4.5, 1% BHI, 25 μg/ml of the peptide
Summary of the method: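 Yeast cells exposed 2 h at pH 4.5 to 25 µg/ml peptide in 1% BHI, then plated on blood agar. Killing scored as 100% and 99% fungicidal effect; growth inhibition read as no OD650 increase after a further 18 h.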

[16] = test system: E. coli; assay: MMC99% of modified peptides, E. coli (Example 25); assay type: cell-based; settings: BHI diluted 1/100, pH approximately 6.7-6.9 (Table 21)
Protocol: as §1
as §2, with “examples 18-21” for “example 22”

[17] = test system: E. coli; assay: MMC99% of modified peptides, E. coli (Example 26); assay type: cell-based; settings: BHI diluted 1/100, pH approximately 6.7-6.9 (Table 22)
Protocol: as §1, §2

[18] = test system: S. epidermis; assay: killing of bacteria at fixed peptide concentration, S. epidermis (Example 12); assay type: cell-based; settings: peptide 25 μg/ml
Protocol: as §6, §7

[19] = test system: E. coli O14; assay: bactericidal and growth inhibitory activity, E. coli O14 (Example 9); assay type: cell-based
Protocol: E. coli O14 was incubated as described above in the presence of the peptides during 2 hours. The bactericidal activity was measured in the same way as described above.
The inhibition of growth was measured spectrophotometrically after incubation during 20 hours.

[20] = test system: reference strain of S. aureus; assay: bactericidal activity, reference strain of S. aureus (Example 19); assay type: cell-based; settings: reference strain of S. aureus 5.0×10^5 per ml, 2 hours at 37° C., lowest concentration tested 6.25 μg/ml
Protocol: In this example the bactericidal activity of three of the peptides according to the invention was studied in a test with a reference strain of S. aureus. A bacterial solution with a concentration of 5.0×10^5 S. aureus bacterial per ml was used. The concentration of each peptide needed to kill 99% of the bacteria (MMC99%) was determined after 2 hours of incubation at 37° C. The lowest concentration tested was 6.25 μg/ml.

[21] = test system: Candida albicans ATCC 64549; assay: fungicidal and growth inhibitory activity, Candida albicans ATCC 64549 (Example 8); assay type: cell-based
Protocol: Candida albicans ATCC 64549 (1·10^5/ml) was incubated in the presence of the peptides during 2 hours at 37° C. in diluted growth medium (BHI, twofold serial dilutions starting with 50 μg/ml). The fungicidal activity was measured by culturing 5 μl from each incubation well on Saboroud agar plates.
The inhibition of growth was measured spectrophotometrically after 20 hours of incubation.

[22] = test system: C. albicans; assay: concentration for killing of 99% of C. albicans at different pH (Example 13, FIG. 2); assay type: cell-based
From the text: In this example the concentrations needed of three peptides according to the invention for killing of 99% of C. albicans at different pH was compared to a reference peptide. The peptides according to the invention were peptide 2 (linear), peptide 3 (cyclic), peptide 4 (linear), peptide 5 (cyclic) and peptide 7 (lactam bridged), all capped. The reference peptides used were an uncapped cyclic form and an uncapped linear form of a Morinaga peptide, Morinaga 24 and 25. The results are illustrated in FIG. 2.

[23] = test system: C. albicans (ATCC 64549); assay: microbe, parasite or virus in culture
Protocol: as §1
In this example the fungicidal activity of one of the peptides according to the invention, the peptide with SEQ. ID. NO. 7, was compared to the conventional antifungal agents flucytosine and fluconazole, and also to human lactoferrin (hLF). The antifungal agents were tested on C. albicans (ATCC 64549) in a concentration of 2×10^5 cells/ml. The tests were performed in BHI medium diluted 1/100.

[24] = test system: C. neoformans; assay: fungicidal activity MMC99%, C. neoformans (Example 27); assay type: cell-based; settings: BHI diluted 1/100 (Table 23)
Protocol: as §1, with “The bacterial or fungal cell solutions were added in 10 μl volumes to give a final concentration of approximately 1-5×10^5 cells per ml in the well. The microplate was incubated at 37° C. in a humid chamber for two hours. Thereafter 5 μl was taken from each well and added as a drop onto a blood agar plate and incubated over night at 37° C.” left out, “The concentration of peptide causing a 99% reduction of the inoculum after 2 hours of incubation was defined as the MMC99%.” left out
In this example the fungicidal activity of three of the peptides according to the invention was studied, and tested against three different fungi. […] The concentration of each peptide needed to kill 99% of the fungi (MMC99%) was determined.

Compound: CFQWQRNMRKVR [Peptide 46, C-F-Q-W-Q-R-N-M-R-K-V-R]
- MMC99% [1]: 12
- MMC99% [2]: 12
- MMC99% [3]: 10
- MMC99% ([4]; E. coli O6, tested at 1, 10, 25 and 100 μg/ml of peptide): 10 µg/mL
- MIC ([4]; O6): 10 µg/mL
- MIC ([5]; ATCC64549): 10 µg/mL
- MMC99% ([5]; C. albicans, tested at 1, 10, 25 and 100 μg/ml of peptide): 10 µg/mL
- MMC99% [6]: 12
- killing of bacteria: S. aureus [7]: + (+ = 99% of the bacteria are killed)
- MMC99% [8]: 50
- MMC99% [9]: 7
- killing of bacteria: E. faecalis [10]: + (+ = 99% of the bacteria are killed)
- killing of bacteria: K. pneumoniae [11]: + (+ = 99% of the bacteria are killed)
- killing of bacteria: P. aeruginosa [12]: + (+ = 99% of the bacteria are killed)
- MMC99% [13]: 12.5
- MMC99% [14]: 10
- C. albicans inhibition (OD650) ([15]; OD650 after an additional 18 hours): +
- C. albicans killing: 99% ([15]; 2 hours): + (+ = 100/99% of the bacteria are killed)
- C. albicans killing: 100% ([15]; 2 hours): + (+ = 100/99% of the bacteria are killed)
- MMC99% [16]: 12
- MMC99% [17]: 6
- killing of bacteria: S. epidermis [18]: + (+ = 99% of the bacteria are killed)

Compound: CSCC[C@H](NC(=O)[C@@H]1CC(=O)NCCCC[C@H](NC(=O)[C@H](Cc2ccccc2)NC(=O)[C@H](C)NC(=O)[C@H](CCCCN)NC(=O)[C@@H](NC(C)=O)[C@@H](C)O)C(=O)N[C@@H](Cc2c[nH]c3ccccc23)C(=O)N[C@@H](CCC(N)=O)C(=O)N[C@@H](CCCNC(=N)N)C(=O)N1)C(=O)N[C@@H](CCCNC(=N)N)C(=O)N[C@@H](CCCCN)C(=O)N[C@H](C(=O)N[C@@H](CCCNC(=N)N)C(N)=O)C(C)C [Peptide 7] (Ac-TKAFKWQRDMRKVR-NH2; lactam 5-9)
- MMC99% [3]: >20
- Concentration of agent for 100% killing ([19]; E. coli O14, 2 hours): 12.5 µg/mL
- Concentration of agent for inhibition of growth ([19]; E. coli O14, spectrophotometrically after 20 hours): ≦1.5 μg/ml
- MMC99% [20]: ≦6.25 μg/ml
- MMC99% [14]: 5
- Concentration of agent for 100% killing ([21]; C. albicans ATCC 64549 1·10^5/ml, 2 hours 37° C., diluted BHI): 3.1 µg/mL
- Concentration of agent for inhibition of growth ([21]; C. albicans ATCC 64549, spectrophotometrically after 20 hours): 1.5 µg/mL
- concentration needed for killing of 99% of C. albicans, ranking over all pH (in words) ([22]; FIG. 2, all different pH): most effective peptide at all different pH
- concentration needed for killing of 99% of C. albicans, compared with the capped cyclic peptides (in words) ([22]; FIG. 2, different pH): better effects than the capped cyclic peptides
- MIC ([23]; ATCC64549): 6.2 µg/mL (≈ 3.31 µM)
- MMC99% ([23]; C. albicans ATCC 64549, 2×10^5 cells/ml, BHI diluted 1/100): 6.2 µg/mL

Compound: C-F-Q-W-Orn-R-N-M-R-K-V-R (CFQW[Orn]RNMRKVR) [SEQ. ID. NO. 87]
- MMC99% [2]: 3
- MMC99% [3]: 5
- MMC99% [24]: 3.1
- MMC99% [8]: >50
- MMC99% [9]: ≦3.5
- MMC99% [13]: 6.3
- MMC99% [14]: 5
- MMC99% [16]: 6
